According to patent US10160762B2, “6-alkyl dihydropyrazolopyrimidinone compounds as PDE2 inhibitors” (Merck Sharp & Dohme Corp., priority 2015, dated 2018):

Each compound was assayed against T1, human PDE2A1 (Homo sapiens, UniProt O00408) (assay: IMAP FP PDE assay, human PDE2A1). Settings: Lab B; read-out: Human PDE2 Ki (nM) Lab B.
T1 construct: GST; purchased BPS Bioscience (San Diego, Calif.) 60020; host or cells: insect cells
Assay type: biochemical
Summary of the method: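 FP (IMAP) read after 60 min room-temperature reaction of insect-cell GST-human PDE2A1 with 50 nM FAM-cAMP plus 1000 nM cGMP (pH 7.2 Tris, Mg2+, DTT). Compounds titrated 3-fold over ten points. Apparent Ki derived assuming KM of 10,000 nM; enzyme at 20% substrate turnover.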

T1 sequence (O00408 1-920 isoform O00408-2): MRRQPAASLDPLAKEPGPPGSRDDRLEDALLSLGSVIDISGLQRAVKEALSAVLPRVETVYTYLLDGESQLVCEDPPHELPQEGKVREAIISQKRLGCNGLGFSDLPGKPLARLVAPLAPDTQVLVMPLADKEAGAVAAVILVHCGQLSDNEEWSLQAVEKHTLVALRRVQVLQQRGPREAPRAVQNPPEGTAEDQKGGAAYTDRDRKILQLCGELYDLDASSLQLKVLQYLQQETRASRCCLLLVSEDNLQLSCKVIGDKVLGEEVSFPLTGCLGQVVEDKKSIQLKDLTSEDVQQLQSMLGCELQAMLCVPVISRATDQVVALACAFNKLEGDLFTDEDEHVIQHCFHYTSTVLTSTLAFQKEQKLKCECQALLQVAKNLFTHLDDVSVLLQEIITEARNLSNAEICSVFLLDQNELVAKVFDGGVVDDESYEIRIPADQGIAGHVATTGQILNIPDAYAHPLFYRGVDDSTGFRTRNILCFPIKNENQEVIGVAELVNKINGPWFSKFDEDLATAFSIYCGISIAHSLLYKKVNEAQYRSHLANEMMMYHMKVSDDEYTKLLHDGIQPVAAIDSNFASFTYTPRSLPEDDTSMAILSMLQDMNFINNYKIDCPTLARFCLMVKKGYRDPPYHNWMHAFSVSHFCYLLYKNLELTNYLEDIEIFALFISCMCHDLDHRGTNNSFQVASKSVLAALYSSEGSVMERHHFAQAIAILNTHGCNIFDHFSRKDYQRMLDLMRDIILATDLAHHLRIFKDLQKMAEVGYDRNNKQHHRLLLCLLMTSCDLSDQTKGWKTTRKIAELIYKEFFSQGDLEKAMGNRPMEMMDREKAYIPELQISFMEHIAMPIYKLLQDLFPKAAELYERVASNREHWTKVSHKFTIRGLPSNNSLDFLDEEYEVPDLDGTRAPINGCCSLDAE

Row | Compound | Ki [nM]
1 | CC(c1ccc(C(F)(F)F)cc1)n1nc(-c2nnco2)c2c(=O)[nH]c(CC3CC3)nc21 (single isomer, unassigned) [Example 340, (R)- or (S)-6-(Cyclopropylmethyl)-3-(1,3,4-oxadiazol-2-yl)-1-(1-(4-(trifluoromethyl)phenyl)ethyl)-1,5-dihydro-4H-pyrazolo[3,4-d] pyrimidin-4-one] | 2.2
2 | CC(c1ccc(C(F)(F)F)cc1)n1nc(-c2nnco2)c2c(=O)[nH]c(CC3CC3)nc21 (single isomer, unassigned) [Example 341, (S)- or (R)-6-(Cyclopropylmethyl)-3-(1,3,4-oxadiazol-2-yl)-1-(1-(4-(trifluoromethyl)phenyl)ethyl)-1,5-dihydro-4H-pyrazolo[3,4-d] pyrimidin-4-one] | 191
3 | CC(c1ccc(C(F)(F)F)cc1)n1nc(-c2nnco2)c2c(=O)[nH]c(CC3CCCC3)nc21 (single isomer, unassigned) [Example 342, (R) or (S)-6-(Cyclopentylmethyl)-3-(1,3,4-oxadiazol-2-yl)-1-(1-(4-(trifluoromethyl)phenyl)ethyl)-1,5-dihydro-4H-pyrazolo[3,4-d] pyrimidin-4-one] | 2.5
4 | COc1cccc(Cc2nc3c(c(-c4nnco4)nn3C(C)c3ccc(C(F)(F)F)cc3)c(=O)[nH]2)c1 (single isomer, unassigned) [Example 344, (R)- or (S)-6-(3-Methoxybenzyl)-3-(1,3,4-oxadiazol-2-yl)-1-(1-(4-(trifluoromethyl)phenyl)ethyl)-1,5-dihydro-4H-pyrazolo[3,4-d] pyrimidin-4-one] | 26
5 | COc1cccc(Cc2nc3c(c(-c4nnco4)nn3C(C)c3ccc(C(F)(F)F)cc3)c(=O)[nH]2)c1 (single isomer, unassigned) [Example 345, (S)- or (R)-6-(3-Methoxybenzyl)-3-(1,3,4-oxadiazol-2-yl)-1-(1-(4-(trifluoromethyl)phenyl)ethyl)-1,5-dihydro-4H-pyrazolo[3,4-d] pyrimidin-4-one] | 0.15
6 | COc1cccc(Cc2nc3c(c(C#N)nn3C(C)c3ccc(C(F)(F)F)cc3)c(=O)[nH]2)c1 (single isomer, unassigned) [Example 348] | 4.7
7 | COc1cccc(Cc2nc3c(c(C#N)nn3C(C)c3ccc(C(F)(F)F)cc3)c(=O)[nH]2)c1 (single isomer, unassigned) [Example 349] | 373

More lines, now with the values ahead:

Row | Ki [nM] | Compound
8 | 3.7 | Cc1nc2c(c(Br)nn2C(C)c2ccc(C(F)(F)F)cc2)c(=O)[nH]1 (single isomer, unassigned) [Example 325]
9 | 299 | CC(c1ccc(C(F)(F)F)cc1)n1nc(-c2nnco2)c2c(=O)[nH]c(CC3CCCC3)nc21 (single isomer, unassigned) [Example 343, (S) or (R)-6-(Cyclopentylmethyl)-3-(1,3,4-oxadiazol-2-yl)-1-(1-(4-(trifluoromethyl)phenyl)ethyl)-1,5-dihydro-4H-pyrazolo[3,4-d] pyrimidin-4-one]
10 | 34 | CC(c1ccc(C(F)(F)F)cc1)n1nc(C#N)c2c(=O)[nH]c(CC3CC3)nc21 (single isomer, unassigned) [Example 346]
11 | 1030 | CC(c1ccc(C(F)(F)F)cc1)n1nc(C#N)c2c(=O)[nH]c(CC3CC3)nc21 (single isomer, unassigned) [Example 347]
12 | 62 | CC(c1ccc(C(F)(F)F)cc1)n1nc(C#N)c2c(=O)[nH]c(CC3CCCC3)nc21 (single isomer, unassigned) [Example 350]
13 | 1010 | CC(c1ccc(C(F)(F)F)cc1)n1nc(C#N)c2c(=O)[nH]c(CC3CCCC3)nc21 (single isomer, unassigned) [Example 351]
14 | 23 | Cc1nc2c(c(CO)nn2C2(c3ccc(C(F)(F)F)cc3)COC2)c(=O)[nH]1 [Example 79, 3-(Hydroxymethyl)-6-methyl-1-(3-(4-(trifluoromethyl)phenyl)oxetan-3-yl)-1H-pyrazolo[3,4-d]pyrimidin-4(5H)-one]
